Structures can show the parent of a compound that is named as a salt.
Tests used:
[1] = target: T1, human dopamine D3 receptors (Homo sapiens, UniProt P35462); assay: Dopamine D3 receptor binding assay ([3H]spiperone, CHO cell membranes); conditions: for Ki: human D3 receptors in CHO cells, 0.2 nM [3H]spiperone, mean ± SEM, read-out: Affinity Ki (D3); for Selectivity Ki(D2)/Ki(D3): ratio of Ki(D2) to Ki(D3)
T1 construct: expressed in transfected cells
Procedure: (§1) Compounds synthesized in Examples A, B, C and D were assayed to test their affinity for dopamine D3 and D2 receptors.
(§2) METHODS: Dopamine D2S and D3 Receptor Binding Assays
Human D3 receptors stably expressed in CHO cells were used as described by Sokoloff et al. (Sokoloff, P. et al., Eur. J. Pharmacol. 1992, 225, 331-337). The cell line was cultured in Dulbecco's modified Eagle's medium supplemented with 2 mM glutamine, and 10% dialyzed fetal bovine serum, and were grown in an atmosphere of 5% CO2 at 37° C. (Gibco™).
(§3) Human D2S- and D3 receptors expressing cell lines were grown to confluence. The medium was removed, and the cells were washed with 10 ml PBS buffer (140 mM NaCl, 3 mM KCl, 1.5 mM KH2PO4, 8 mM Na2HPO4, pH 7.4) at 4° C. After removing the wash buffer, the cells were scraped from the flasks into 15 ml of ice-cold media, and centrifuged at 3,000 rpm for 10 minutes at 4° C. After centrifugation the medium was removed and the […] resuspended in ice-cold Tris-HCl buffer containing 5 mM MgCl2, pH 7.4 and disrupted with a Polytron and centrifuged at 20,000 rpm, for 30 minutes at 4° C. The pellet was resuspended by sonication in ice-cold Tris-HCl buffer (containing 5 mM MgCl2, pH 7.4), membrane aliquots were stored at −70° C. Determination of membrane protein was carried out by the method of Bradford (Bradford, M. M. Anal Biochem 1976, 72, 248-54).
(§4) Cell membranes containing human D2S and D3 receptors from CHO cells were thawed, rehomogenized with sonication at 4° C. in Tris-HCl, pH 7.4 containing 120 mM NaCl, 5 mM KCl, 2 mM CaCl2 and 1 mM MgCl2 (incubation buffer), and incubated with 0.2 nM [^3H]spiperone (106 Ci·mmol^−1, Amersham Biosciences, Freiburg, Germany), and drug diluted in incubation buffer. Non-specific binding was determined in the presence of 10 μM BP 897 ((Wermuth, C. G. et al. in Chem. Abstr. (Eur. Pat. 0779284, 1997)). Incubations were run at 25° C. for 120 min, and terminated by rapid filtration through PerkinElmer GF/B glass fibre filters (PerkinElmer Life Sciences, Rodgau, Germany) coated in 0.3% polyethylenimine (Sigma-Aldrich, Taufkirchen, Germany) using an Inotech cell harvester (Inotech AG, Dottikon, Switzerland). Unbound radioligand was removed with four washes of 1 ml of ice-cold 50 mM Tris-HCl buffer, pH 7.4, containing 120 mM NaCl. The filters were soaked in 9 ml Beta plate scint scintillator and counted using a PerkinElmer MicroBeta®Trilux scintillation counter (PerkinElmer Life Sciences). Competition binding data were analyzed by the software GraphPad Prism™ (2000, version 3.02, San Diego, Calif., USA), using non-linear least squares fit. For detailed screening the compounds have been tested at seven concentrations in triplicate carrying out three to five separate binding experiments for human dopamine D2S and for human dopamine D3 receptors and expressed as mean±standard error of the mean (SEM). Ki values were calculated from the IC50 values according to Cheng-Prusoff equation (Cheng, Y. C., Prusoff, W. H. Biochem. Pharmacol. 1973, 22, 3099-3108.).

[2] = system: 6-OHDA-lesioned rat model of Parkinson's disease; assay: Rotational behaviour in 6-OHDA-lesioned rat model of Parkinson's disease; format: in vivo; conditions: in vivo model
Procedure: Preparation of 6-OHDA-Lesioned Rat Model of Parkinson's Disease
Male Sprague-Dawley rats weighing 290-350 g were used. The rats were housed in a temperature-controlled room under a 12 hour light/dark cycle with free access to food and water. Thirty minutes prior to surgery, the animals were given the monoamine oxidase-B inhibitor pargyline (5 mg/kg i.p.;) and the noradrenaline uptake inhibitor desipramine (25 mg/kg i.p.). The rats were then placed under general anaesthesia (Flourothane) and immobilised in stereotaxic frame. Following reflection of cranial skin and periostium, a small bur-hole was made in the skull on the right side and a small puncture was made in the dura mater. Each animal then received a unilateral injection of 2.5 μl of the neurotoxin 6-hydroxydopamine hydrobromide (6-OHDA HBr; 5 mg/ml in sterile water with 0.1% ascorbic acid; i.e. 12.5 μg 6-OHDA per rat) into the right medial forebrain bundle at stereotaxic co-ordinates −2.8 mm from bregma, 2 mm lateral to the midline, and 9 mm below the skull. The 6-OHDA injection was made over a 5 minute period using a 5 μl Hamilton syringe. The rats were allowed to recover for 3 weeks following the lesion. Animals then received 0.05 mg/kg s.c. apomorphine to assess the extent of lesion. Animals displaying clear rotational behaviour directed contralateral to the lesioned side were selected for further studies.
Only lesioned animals were used in the study (as determined by apomorphine rotation).
Animals were administered a dose of the test compound at 1 mg/kg or 3 mg/kg (i.p.) and rotational behaviour was assessed for up to 4 hours following drug administration using automated rotometers. Alternatively, animals were administered a dose of the test compound at 10 mg/kg (p.o.) and rotational behaviour was assessed for up to 8 hours following drug administration using automated rotometers.
Each compound was administered to at least 5 rats.
Total net rotational activity. This parameter is calculated as the total number of 180° rotations (net contralateral) over the duration of the experiment.
Data were analysed independently for each novel compound with appropriate parametric statistics. All tests were carried out in Graphpad Prism Version 3.

[3] = target: T2, recombinant human D2(short) dopamine receptor (Homo sapiens, UniProt P14416); assay: Dopamine D2S receptor binding assay ([3H]spiperone, CHO cell membranes); conditions: human D2S receptors in CHO cells, 0.2 nM [3H]spiperone, mean ± SEM; read-out: Affinity Ki (D2)
T2 construct: expressed in transfected cells; host or cells: CHO-D2S cells (per Hayes et al. 1992)
T2 sequence (P14416 1-414 isoform P14416-2): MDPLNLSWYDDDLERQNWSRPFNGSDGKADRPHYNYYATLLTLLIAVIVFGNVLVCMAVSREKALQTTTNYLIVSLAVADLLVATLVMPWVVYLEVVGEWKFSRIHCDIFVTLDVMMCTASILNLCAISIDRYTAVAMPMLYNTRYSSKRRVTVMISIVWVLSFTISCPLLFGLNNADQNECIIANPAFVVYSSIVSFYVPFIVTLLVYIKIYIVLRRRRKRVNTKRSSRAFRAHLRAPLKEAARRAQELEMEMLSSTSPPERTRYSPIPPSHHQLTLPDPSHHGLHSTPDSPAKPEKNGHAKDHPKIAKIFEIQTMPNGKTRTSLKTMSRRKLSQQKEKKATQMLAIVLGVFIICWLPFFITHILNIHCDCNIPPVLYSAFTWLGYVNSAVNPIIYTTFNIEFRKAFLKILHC
Procedure: as §1, §2
CHO-D2S cells, expressing the recombinant human D2(short) dopamine receptor gene, (Hayes, G. et al., J. Mol. Endocrinol. 1992, 6, 920-926) were grown in Dulbecco's modified Eagle's medium/nutrient mixture F12 1:1 mixture supplemented with 2 mM glutamine, 10% fetal bovine serum, and 10 μl·ml^−1 penicillin/streptomycin in an atmosphere of 5% CO2 at 37° C. (Gibco™, Karlsruhe, Germany).
as §3, §4

T1 sequence (P35462 whole entry): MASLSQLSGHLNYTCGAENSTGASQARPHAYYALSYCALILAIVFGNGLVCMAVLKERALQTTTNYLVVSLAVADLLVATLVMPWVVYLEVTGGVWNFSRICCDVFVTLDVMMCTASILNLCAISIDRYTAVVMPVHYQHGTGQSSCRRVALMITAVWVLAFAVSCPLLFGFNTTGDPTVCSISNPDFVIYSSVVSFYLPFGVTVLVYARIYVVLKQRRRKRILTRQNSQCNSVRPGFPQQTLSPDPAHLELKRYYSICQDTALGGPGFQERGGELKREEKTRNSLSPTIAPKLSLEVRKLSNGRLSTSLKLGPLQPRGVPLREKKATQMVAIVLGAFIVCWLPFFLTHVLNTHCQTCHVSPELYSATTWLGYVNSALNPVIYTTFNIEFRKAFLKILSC

SMILES	melting point	Ki [1]	Selectivity Ki(D2)/Ki(D3) [1]	Ki [3]	also measured
CCN(CCN(CC)C1CCc2ncsc2C1)C1CCc2ncsc2C1 (centres unmarked) (as salt: salt) [Compound 33, N,N′-Diethyl-N,N′-bis-(4,5,6,7-tetrahydro-benzothiazol-6-yl)-ethane-1,2-diamine]	83 °C	–	–	–	–
CCCN(CCCN1CCN(c2cccc(Cl)c2Cl)CC1)C1CCc2ncsc2C1 (centres unmarked) (as salt: salt) [Compound 36, {3-[4-(2,3-Dichloro-phenyl)-piperazin-1-yl]-propyl}-propyl-(4,5,6,7-tetrahydro-benzothiazol-6-yl)-amine]	110 °C	–	–	–	–
CCCN(CCCCN1CCN(c2cccc(Cl)c2Cl)CC1)C1CCc2ncsc2C1 (centres unmarked) (as salt: salt) [Compound 37, {4-[4-(2,3-Dichloro-phenyl)-piperazin-1-yl]-butyl}-propyl-(4,5,6,7-tetrahydro-benzothiazol-6-yl)-amine]	150 °C	–	–	–	–
CCCN(CCN1CCN(C(=O)c2ccccc2)CC1)C1CCc2ncsc2C1 (centres unmarked) (as salt: salt) [Compound 38, [2-(4-Benzoyl-piperazin-1-yl)-ethyl]-propyl-(4,5,6,7-tetrahydro-benzothiazol-6-yl)-amine]	186 °C	–	–	–	–
CCCN(CCCCNC(=O)NC1Cc2ccccc2C1)C1CCc2ncsc2C1 (centres unmarked) (as salt: salt) [Compound 60, 1-Indan-2-yl-3-{4-[propyl-(4,5,6,7-tetrahydrobenzothiazol-6-yl)amino]butyl}urea]	93 °C	–	–	–	–
CCCN(CCCCNC(=O)N1CCN(c2ccccc2)CC1)C1CCc2ncsc2C1 (centres unmarked) (as salt: salt) [Compound 61, 4-Phenylpiperazine-1-carboxylic acid {4-[propyl-(4,5,6,7-tetrahydrobenzothiazol-6-yl)amino]butyl}amide]	120 °C	–	–	–	–
CCCN(CCCCNC(=O)N1CC=C(c2ccccc2)CC1)C1CCc2ncsc2C1 (centres unmarked) (as salt: salt) [Compound 62, 4-Phenyl-3,6-dihydro-2H-pyridine-1-carboxylic acid {4-[propyl-(4,5,6,7-tetrahydrobenzothiazol-6-yl)amino]butyl}amide]	115 °C	–	–	–	–
CCCN(CCCCNC(=O)N1CCC(c2ccccc2)CC1)C1CCc2ncsc2C1 (centres unmarked) (as salt: salt) [Compound 64, 4-phenyl-N-(4-(propyl-(4,5,6,7-tetrahydrobenzo [d]thiazol-6-yl)amino)butyl)piperidine-1-carboxamide]	56 °C	–	–	–	–
CCCN(CCCCNC(=O)C12CC3CC(CC(C3)C1)C2)C1CCc2ncsc2C1 (centres unmarked) (as salt: salt) [Compound 65]	114 °C	–	–	–	–
CCCN(CCCCC(=O)N1CCN(c2ccccc2)CC1)C1CCc2ncsc2C1 (centres unmarked) (as salt: salt) [Compound 66, 1-(4-Phenylpiperazin-1-yl)-5-(propyl-(4,5,6,7-tetrahydrobenzothiazol-6-yl)amino)pentan-1-one]	75 °C	–	–	–	–
CCCN(CCCCC(=O)NC1Cc2ccccc2C1)C1CCc2ncsc2C1 (centres unmarked) (as salt: salt) [Compound 67, N-(2,3-dihydro-1H-inden-2-yl)-5-(propyl-(4,5,6,7-tetrahydrobenzothiazol-6-yl)amino)pentanamide]	60 °C	–	–	–	–
CCCN(CCCCC(=O)NC12CC3CC(CC(C3)C1)C2)C1CCc2ncsc2C1 (centres unmarked) (as salt: salt) [Compound 68, N-Adamantanyl-5-(propyl-(4,5,6,7-tetrahydrobenzothiazol-6-yl)amino)pentanamide]	145 °C	–	–	–	–
CCCN(CCOc1ccccc1)C1CCc2ncsc2C1 (centres unmarked) (as salt: salt) [Compound 69, N-(2-Phenoxyethyl)-N-propyl-4,5,6,7-tetrahydrobenzothiazol-6-amine]	136 °C	–	–	–	–
CCCN(CCCCC(=O)Nc1ccc2ccccc2c1)C1CCc2ncsc2C1 (centres unmarked) [Compound 9, 5-[Propyl-(4,5,6,7-tetrahydro-benzothiazol-6-yl)-amino]-pentanoic acid naphthalen-2-ylamide]	–	0.55 ± 0.19 nM	542	299 ± 38 nM	onset of action [2]: fast acting; short or long acting in vivo [2]: short acting
CCCN(CCCCNC(=O)N1CCc2ccccc2C1)C1CCc2ncsc2C1 (centres unmarked) [Compound 24, 3,4-Dihydro-1H-isoquinoline-2-carboxylic acid {4-[propyl-(4,5,6,7-tetrahydro-benzothiazol-6-yl)-amino]-butyl}-amide]	–	3.95 ± 1.17 nM	394	1560 ± 464 nM	short or long acting in vivo [2]: short acting
CCCN(CCN1CCN(c2cccc(Cl)c2Cl)CC1)C1CCc2ncsc2C1 (centres unmarked) [Compound 35, {2-[4-(2,3 -Dichloro-phenyl)-piperazin-1-yl]-ethyl}-propyl-(4,5,6,7-tetrahydro-benzothiazol-6-yl)-amine]	103.5 °C	21.7 ± 10.6 nM	2	61.3 ± 19.1 nM	–
CCCN(Cc1ccc(C(=O)N(CCC)C2CCc3ncsc3C2)cc1)C1CCc2ncsc2C1 (centres unmarked) [Compound 42, N-Propyl-4-{[propyl-(4,5,6,7-tetrahydrobenzothiazol-6-yl)amino]methyl}-N-(4,5,6,7-tetrahydrobenzothiazol-6-yl)benzamide]	85 °C	631 ± 388 nM	26	16700 ± 3380 nM	–
CCCN(Cc1ccc(C(=O)N2CCN(c3ccccc3)CC2)cc1)C1CCc2ncsc2C1 (centres unmarked) [Compound 43, (4-Phenylpiperazin-1-yl)-(4-{[propyl-(4,5,6,7-tetrahydrobenzothiazol-6-yl)amino]methyl}phenyl)methanone]	70 °C	29.4 ± 7.5 nM	49	1440 ± 273 nM	–
CCCN(Cc1ccc(C(=O)NC2Cc3ccccc3C2)cc1)C1CCc2ncsc2C1 (centres unmarked) [Compound 44, N-Indan-2-yl-4-{[propyl-(4,5,6,7-tetrahydrobenzothiazol-6-yl)amino]methyl}benzamide]	65 °C	836 ± 211 nM	19	16100 ± 8850 nM	–
